Target: T1, recombinant Human β-Amyloid Peptide (1-42) (Homo sapiens, UniProt P05067)
T1 construct: recombinant Human β-Amyloid Peptide (1-42); purchased BioLegend 843801
Assay: Mass spectrometry (MS) binding assay
Settings: 22 pmol/μL peptide, 1100 pmol/μL compound (50×); for Number of molecules bound to Aβ42: direct infusion Q-TOF MS, stoichiometry of the binding; for Semiquantitative Estimation: semiquantitative evaluation of the binding compared to a blank
Description: Compounds of the invention were screened by mass spectrometry (“MS”) binding assays to assess the ability of compounds to bind to the protein. Approximately 1 mg of the compound was reconstituted in 1 mL of MilliQ water and vortexed vigorously for 2 minutes until completely in solution. The sample was then diluted to create an approximately 2200 pmol/μL solution. One mg of recombinant Human β-Amyloid Peptide (1-42) from BioLegend (99% purity, cat: 843801) was reconstituted in 200 μL of MilliQ water and vortexed vigorously for 2 minutes to solubilize the peptide creating a 5 mg/mL solution. Samples were then diluted to a final concentration 44 pmol/μL prior to mix with drug solution. Samples were then mixed together for a final concentration of 22 pmol/μL (x) for peptide and 1100 pmol/μL for individual compounds (50×). Samples were infused directly in mass specs after adding 50 μL of 10% formic acid in final solution to increase the ionization. The data acquisition was performed using a Waters time of flight mass spectrometer (Q-TOF Micro). The data was acquired using the scanning mode to allow for the detection of the peptide. Samples were infused at room temperature. The mass spectrometer conditions were maintained throughout the study to ensure consistency of the data. The Waters Qtof conditions were as follows: Samples were directly infused into the mass spectrometer at a flow rate of 20 μL/min using in-build Syringe Pump and Hamilton 1 mL Syringe and the acquisition time was kept 2 minutes. Once acquisition of the samples was completed, the raw data was then analyzed using the Water MassLynx 4.1, SCN744. Stoichiometry of the binding was determined and the semiquantitative evaluation of the binding was compared to a blank.

T1 sequence (P05067 672-713 limits assumed): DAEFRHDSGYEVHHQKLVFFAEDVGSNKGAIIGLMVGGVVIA

Structure (SMILES)	Number of molecules bound to Aβ42	Semiquantitative Estimation
NC1CCC(S(=O)(=O)O)C1 (centres unmarked) [Compound 2005, 3-aminocyclopentane-1-sulfonic acid]	[+1]	[+]
CC(C)[C@H](N)C(=O)NC1CCC(S(=O)(=O)O)C1 (stereo partly drawn) [Compound 2010, 3-((S)-2-amino-3-methylbutanamido)cyclopentane-1-sulfonic acid]	[+2]	[++]
CC(C)C[C@H](N)C(=O)NC1CCC(S(=O)(=O)O)C1 (stereo partly drawn) [Compound 2011, 3-((S)-2-amino-4-methylpentanamido)cyclopentane-1-sulfonic acid]	[+1]	[+]
N[C@@H](CO)C(=O)NC1CCC(S(=O)(=O)O)C1 (some centres unmarked) [Compound 2012]	[+4]	[++++]
CS(=O)(=O)CC[C@H](N)C(=O)NC1CCC(S(=O)(=O)O)C1 (stereo partly drawn) [Compound 2014, 3-((S)-2-amino-4-(methylsulfonyl)butanamido)cyclopentane-1-sulfonic acid]	[+3]	[+++]
N[C@@H](Cc1ccc(O)cc1)C(=O)NC1CCC(S(=O)(=O)O)C1 (stereo partly drawn) [Compound 2015, 3-((S)-2-amino-3-(4-hydroxyphenyl)propanamido)cyclopentane-1-sulfonic acid]	[+3]	[+++]
O=C(N[C@@H](Cc1ccc(O)cc1)C(=O)NC1CCC(S(=O)(=O)O)C1)OCc1ccccc1 (stereo partly drawn) [Compound 2021, 3-((S)-2-(((benzyloxy)carbonyl)amino)-3-(4-hydroxyphenyl)propanamido)cyclopentane-1-sulfonic acid]	No Binding	–
CC(C)C[C@H](NC(=O)OCc1ccccc1)C(=O)NC1CCC(S(=O)(=O)O)C1 (stereo partly drawn) [Compound 2024, 3-((S)-2-(((benzyloxy)carbonyl)amino)-4-methylpentanamido)cyclopentane-1-sulfonic acid]	No Binding	–
CS(=O)(=O)CC[C@H](NC(=O)OCc1ccccc1)C(=O)NC1CCC(S(=O)(=O)O)C1 (stereo partly drawn) [Compound 2026, 3-((S)-2-(((benzyloxy)carbonyl)amino)-4-(methylsulfonyl)butanamido)cyclopentane-1-sulfonic acid]	[+2]	[++]
COC(=O)C1CCC(S(=O)(=O)O)C1 (centres unmarked) [Compound 2028, 3-(Methoxycarbonyl)cyclopentane-1-sulfonic acid]	[+3]	[+++]
O=C(O)C1CCC(S(=O)(=O)O)C1 (centres unmarked) [Compound 2029, 3-Sulfocyclopentane-1-carboxylic acid]	[+3]	[+++]
O=C(NCc1ccccc1)C1CCC(S(=O)(=O)O)C1 (centres unmarked) [Compound 2030, 3-(benzylcarbamoyl)cyclopentane-1-sulfonic acid]	[+1]	[+]
O=C(N[C@@H](Cc1ccccc1)C(=O)O)C1CCC(S(=O)(=O)O)C1 (some centres unmarked) [Compound 2034]	No Binding	–
O=C(N[C@@H](CO)C(=O)O)C1CCC(S(=O)(=O)O)C1 (some centres unmarked) [Compound 2037]	[+1]	[+]
O=C(NCc1ccccc1)[C@@H]1C[C@H](S(=O)(=O)O)CN1 [Compound 2055]	[+4]	[++++]
O=C([C@@H]1C[C@H](S(=O)(=O)O)CN1)N(CCO)CCO [Compound 2059]	[+2]	[++]
C[C@H](NC(=O)[C@@H]1C[C@H](S(=O)(=O)O)CN1)C(=O)O [Compound 2061]	[+4]	[++++]
O=C(NC1CCNCC1)[C@@H]1C[C@H](S(=O)(=O)O)CN1 [Compound 2077]	[+4]	[++++]
O=C(NCc1ccccc1)[C@@H]1C[C@@H](S(=O)(=O)O)CN1 [Compound 2083]	[+2]	[++]
CNC(=O)[C@@H]1C[C@@H](S(=O)(=O)O)CN1 [Compound 2084]	[+5]	[+++++]
CCN(CC)C(=O)[C@@H]1C[C@@H](S(=O)(=O)O)CN1 [Compound 2085]	[+4]	[++++]
O=C([C@@H]1C[C@@H](S(=O)(=O)O)CN1)N(CCO)CCO [Compound 2087]	[+4]	[++++]

Reference: patent US10590070B2, “Compositions and methods for treating and preventing neurodegenerative disorders” (ALZHEON, INC., priority 2015, dated 2020)
